# From US7964531B2, “3-phenoxy-4-pyridazinol derivatives and herbicidal composition containing the same” (Mitsui Chemicals Agro, Inc., priority 2001, dated 2011)
# Key:
# Type in all cases: in vivo
# Conditions in all cases: wettable powder applied 3 days after transplanting, judged after 25 days
# Cyperus serotinus = assay: Test Example 1: herbicidal effects, paddy-field pot test
# Outline: (§1)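 First, paddy soil was potted and seeded at the surface layer with non-dormant weed seeds; germinated Cyperus serotinus tubers were planted and 2.2-leaf rice transplanted. Three days later, diluted wettable powder was applied under flooding. Inhibition was rated 0–5 after 25 days.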
# Scirpus joncoides = assay: as above
# Outline: as §1
# [1] = system: annual broad-leaved weeds (Lindernia spp., Rotala indica); assay: as above
# Outline: as §1
# [2] = system: barnyardgrass (Echinochloa oryzicola Vasing.); assay: as above
# Outline: as §1
# [3] = system: transplanted paddy-field rice; assay: Test Example 1: crop injury against transplanted paddy-field rice
# Outline: as §1
Structure (SMILES),Herbicidal effects Cyperus serotinus (Cyperus serotinus; chemical dosage 12.5 g/a),Herbicidal effects Cyperus serotinus (Cyperus serotinus; chemical dosage 25 g/a),Herbicidal effects Scirpus joncoides (Scirpus joncoides; chemical dosage 12.5 g/a),Herbicidal effects Scirpus joncoides (Scirpus joncoides; chemical dosage 25 g/a),Herbicidal effects Broad leaf ([1]; chemical dosage 12.5 g/a),Herbicidal effects Broad leaf ([1]; chemical dosage 25 g/a),Herbicidal effects Barnyard grass ([2]; chemical dosage 12.5 g/a),Herbicidal effects Barnyard grass ([2]; chemical dosage 25 g/a),Crop injury against transplanted rice ([3]; chemical dosage 12.5 g/a),Crop injury against transplanted rice ([3]; chemical dosage 25 g/a),Herbicidal effects Cyperus serotinus (Cyperus serotinus; chemical dosage 10 g/a),Herbicidal effects Cyperus serotinus (Cyperus serotinus; chemical dosage 20 g/a),Herbicidal effects Scirpus joncoides (Scirpus joncoides; chemical dosage 10 g/a),Herbicidal effects Scirpus joncoides (Scirpus joncoides; chemical dosage 20 g/a),Herbicidal effects Broad leaf ([1]; chemical dosage 10 g/a),Herbicidal effects Broad leaf ([1]; chemical dosage 20 g/a),Herbicidal effects Barnyard grass ([2]; chemical dosage 10 g/a),Herbicidal effects Barnyard grass ([2]; chemical dosage 20 g/a),Crop injury against transplanted rice ([3]; chemical dosage 10 g/a),Crop injury against transplanted rice ([3]; chemical dosage 20 g/a)
Oc1cc(Cl)nnc1Oc1c(Cl)cccc1Cl [Example 240],5 (Growth inhibition rate; 91 to 100%),5 (Growth inhibition rate; 91 to 100%),3 (Growth inhibition rate; 51 to 70%),4 (Growth inhibition rate; 71 to 90%),5 (Growth inhibition rate; 91 to 100%),5 (Growth inhibition rate; 91 to 100%),2 (Growth inhibition rate; 31 to 50%),3 (Growth inhibition rate; 51 to 70%),0 (Growth inhibition rate; 0 to 10%),0 (Growth inhibition rate; 0 to 10%),–,–,–,–,–,–,–,–,–,–
Oc1cc(Cl)nnc1Oc1c(Cl)cccc1I [Example 241],–,–,–,–,–,–,–,–,–,–,5 (Growth inhibition rate; 91 to 100%),5 (Growth inhibition rate; 91 to 100%),3 (Growth inhibition rate; 51 to 70%),4 (Growth inhibition rate; 71 to 90%),5 (Growth inhibition rate; 91 to 100%),5 (Growth inhibition rate; 91 to 100%),1 (Growth inhibition rate; 11 to 30%),3 (Growth inhibition rate; 51 to 70%),0 (Growth inhibition rate; 0 to 10%),0 (Growth inhibition rate; 0 to 10%)
Cc1cccc(Cl)c1Oc1nnc(Cl)cc1O [Example 242],5 (Growth inhibition rate; 91 to 100%),5 (Growth inhibition rate; 91 to 100%),3 (Growth inhibition rate; 51 to 70%),4 (Growth inhibition rate; 71 to 90%),5 (Growth inhibition rate; 91 to 100%),5 (Growth inhibition rate; 91 to 100%),3 (Growth inhibition rate; 51 to 70%),4 (Growth inhibition rate; 71 to 90%),0 (Growth inhibition rate; 0 to 10%),0 (Growth inhibition rate; 0 to 10%),–,–,–,–,–,–,–,–,–,–
CCc1cccc(Cl)c1Oc1nnc(Cl)cc1O [Example 243],5 (Growth inhibition rate; 91 to 100%),5 (Growth inhibition rate; 91 to 100%),4 (Growth inhibition rate; 71 to 90%),4 (Growth inhibition rate; 71 to 90%),5 (Growth inhibition rate; 91 to 100%),5 (Growth inhibition rate; 91 to 100%),1 (Growth inhibition rate; 11 to 30%),2 (Growth inhibition rate; 31 to 50%),0 (Growth inhibition rate; 0 to 10%),0 (Growth inhibition rate; 0 to 10%),–,–,–,–,–,–,–,–,–,–
CCc1cccc(Br)c1Oc1nnc(Cl)cc1O [Example 250],–,–,–,–,–,–,–,–,–,–,5 (Growth inhibition rate; 91 to 100%),5 (Growth inhibition rate; 91 to 100%),5 (Growth inhibition rate; 91 to 100%),5 (Growth inhibition rate; 91 to 100%),5 (Growth inhibition rate; 91 to 100%),5 (Growth inhibition rate; 91 to 100%),3 (Growth inhibition rate; 51 to 70%),4 (Growth inhibition rate; 71 to 90%),0 (Growth inhibition rate; 0 to 10%),0 (Growth inhibition rate; 0 to 10%)
Oc1cc(Cl)nnc1Oc1c(Br)cccc1C1CC1 [Example 253],–,–,–,–,–,–,–,–,–,–,5 (Growth inhibition rate; 91 to 100%),5 (Growth inhibition rate; 91 to 100%),5 (Growth inhibition rate; 91 to 100%),5 (Growth inhibition rate; 91 to 100%),5 (Growth inhibition rate; 91 to 100%),5 (Growth inhibition rate; 91 to 100%),3 (Growth inhibition rate; 51 to 70%),4 (Growth inhibition rate; 71 to 90%),5 (Growth inhibition rate; 91 to 100%),5 (Growth inhibition rate; 91 to 100%)
COc1cccc(Br)c1Oc1nnc(Cl)cc1O [Example 255],–,–,–,–,–,–,–,–,–,–,5 (Growth inhibition rate; 91 to 100%),5 (Growth inhibition rate; 91 to 100%),4 (Growth inhibition rate; 71 to 90%),4 (Growth inhibition rate; 71 to 90%),5 (Growth inhibition rate; 91 to 100%),5 (Growth inhibition rate; 91 to 100%),5 (Growth inhibition rate; 91 to 100%),5 (Growth inhibition rate; 91 to 100%),0 (Growth inhibition rate; 0 to 10%),2 (Growth inhibition rate; 31 to 50%)
CCc1cccc(C)c1Oc1nnc(Cl)cc1O [Example 260],–,–,–,–,–,–,–,–,–,–,5 (Growth inhibition rate; 91 to 100%),5 (Growth inhibition rate; 91 to 100%),5 (Growth inhibition rate; 91 to 100%),5 (Growth inhibition rate; 91 to 100%),5 (Growth inhibition rate; 91 to 100%),5 (Growth inhibition rate; 91 to 100%),2 (Growth inhibition rate; 31 to 50%),3 (Growth inhibition rate; 51 to 70%),0 (Growth inhibition rate; 0 to 10%),0 (Growth inhibition rate; 0 to 10%)
Cc1cccc(C(C)C)c1Oc1nnc(Cl)cc1O [Example 261],–,–,–,–,–,–,–,–,–,–,5 (Growth inhibition rate; 91 to 100%),5 (Growth inhibition rate; 91 to 100%),4 (Growth inhibition rate; 71 to 90%),5 (Growth inhibition rate; 91 to 100%),5 (Growth inhibition rate; 91 to 100%),5 (Growth inhibition rate; 91 to 100%),2 (Growth inhibition rate; 31 to 50%),2 (Growth inhibition rate; 31 to 50%),0 (Growth inhibition rate; 0 to 10%),0 (Growth inhibition rate; 0 to 10%)
